Test results taken from patent publication US10694742B2, “Composition comprising a pesticide and a hydroxyalkyl polyoxylene glycol ether” (BASF SE, priority 2014, dated 2020).

What was measured:
Puccinia triticina = assay: Greenhouse biological activity on infected wheat; assay type: in vivo, Puccinia triticina on wheat (species Kanzler); conditions: sprayed three days after infection, rated after ten days, three replicates
Procedure: The biological activity was assessed in a greenhouse on wheat (species “Kanzler”), which was infected with Puccinia triticina at two leafes stage and incubated for three days at high humidity. The plants were sprayed (spray volume 200 l/ha) with a composition comprising 50 ppm (10 g/ha or 2.5 g/ha dose rate) epoxiconazole and 100 ppm (20 g/ha) of the respective Compounds 1-7. In the comparative example no adjuvant was added. The plants were further cultivated for ten days at 20-24° C. and 60-90% relative humidity. Finally, the percentage of the infected leaf area (pustules) was visually inspected. Each value was based on three replicates.

Wheat plants = assay: Uptake rate of pesticide into sprayed wheat leaves (HPLC-MS/MS); assay type: in vivo, Triticum aestivum variety Melon; conditions: 125 g/ha epoxiconazole, 125 g/ha fluxapyroxad, 250 g/ha adjuvant compound; 200 l/ha; leaves sampled after 8 days
Text: Wheat plants (Triticum aestivum variety Melon) were cultivated in the greenhouse for 6 weeks up to development stage BBCH 39. The plants were transferred to an automatic lab track sprayer and they were sprayed with 125 g/ha epoxiconazole, 125 g/ha fluxapyroxad, and 250 g/ha of the respective Compound 1-5 according to the following parameters:
Nozzle type: Air injector, ID 120 02 (Lechler, Germany)
Subsequently to spraying, the plants were cultivated again in the greenhouse under ambient conditions. After 8 days samples of 10-15 treated leaves were cut off and weighed.
Leaves were cut into small pieces, transferred into glass bottles and washed with 50% methanol in demineralized water as washing medium for 5 min. Then, the washing medium was separated from the leaves. The leaves were washed again with washing medium for 5 min. […]
Finally, the leaves were transferred to a vial containing the extraction medium (75% methanol, 20% water and 5% HCl) and homogenized using a Polytron PT 6100 dispersing unit (Kinematica, CH) for 2 min. […] The residue was solubilized in methanol/water 50:50 and analyzed by HPLC-MS/MS.
An Agilent 1100 series HPLC coupled to an Applied Biosystems API 3000 triple quadrupole mass spectrometer, equipped with an electro spray ionization source, was used. […] According to the recovery rate the measured sample values were corrected. […]

Septoria and Brown rust = assay: Field trial winter wheat, yield; assay type: in vivo, winter wheat (var. Akteur); conditions: for Yield Winter Wheat, Relative Yield (%): half rate (N/2) Epoxiconazole SC 125 applied twice at BBCH 32 and 51, adjuvant 150 ml/ha in tank mix, comparative experiment = 100.0
Procedure: (§1) Field studies were conducted on a Parabraunerde soil in accordance with GEP in southern Germany on commercially planted winter wheat (var. Akteur) and winter rapeseed (var. Genie), respectively, exposed to a maritime climate. The standard experimental design was a randomized complete block with 4 replicates. There was no artificial infestation. Fungicides were applied at their label rate (N) and when mixed with adjuvants in the tank, at half rate (N/2). Dose rate of adjuvants was 150 ml/ha. Efficacy was measured by yield in dt/ha. Following the analysis of variance a mean separation test (Student-Newman-Keuls) was applied at a 5% significance level. All treatments were fully selective.
Spray volume was 200 l/ha applied with an AirMix 110-03 nozzle at a pressure of 1.9 bar. Plots were in 2.5 m by 7 m large. Epoxiconazole SC 125 with a dispersing additive (based on naphthalene sulfonic acid formaldehyde condensation product, sodium salt) was applied twice at the growth stages (BBCH) 32 and 51. During the course of trial, there was a natural infestation of Septoria and Brown rust. In each treatment, the dose rate of adjuvants was 150 ml/ha.
(§2) For a quantitative measure, the yield of each treatment was determined.

Sclerotinia sp. = assay: Field trial rapeseed, yield; assay type: in vivo, winter rapeseed (var. Genie); conditions: half rate (N/2) Cantus Gold SC applied at BBCH 51; adjuvant 150 ml/ha in tank mix; comparative experiment = 100.0
Procedure: as §1
Spray volume was 250 l/ha applied with an AirMix 110-03 nozzle at a pressure of 2.1 bar. Plots were in 3 m by 7 m large. Cantus® Gold SC (200 g/l Boscalid and 200 g/l Dimoxystrobin with a dispersing additive based on benzenesulfonic acid, hydroxy-, polymer with formaldehyde, phenol and urea, sodium salt) was applied at the growth stage (BBCH) 51 of rapeseed on a Parabraunerde soil. During the course of trial, there was a natural infestation of Sclerotinia sp. In each treatment, the dose rate of adjuvants was 150 ml/ha.
as §2

Structure (SMILES)	Infected leaf area 2,5 g/ha dose rate (Puccinia triticina; epoxiconazole 2,5 g/ha + 100 ppm (20 g/ha) adjuvant compound) [%]	Infected leaf area 10 g/ha dose rate (Puccinia triticina; epoxiconazole 10 g/ha + 100 ppm (20 g/ha) adjuvant compound) [%]	Epoxiconazole Uptake Rate [%] (Wheat plants)	Yield Winter Wheat, Relative Yield (%) (Septoria and Brown rust)	Yield Rapeseed, Relative Yield (%) (Sclerotinia sp.)	Improvement of yield of the half rate (N/2) compared to N/2 alone, wheat (Septoria and Brown rust; N/2 epoxiconazole + adjuvant 150 ml/ha, Student-Newman-Keuls, 5% significance level)
Fc1ccc([C@]2(Cn3cncn3)O[C@H]2c2ccccc2Cl)cc1 (racemic) [epoxiconazole]	78	48	19	103.5	–	–
CCCCCCCCC(O)COCCOCCOCCOCCOCCOCCOCCOCCOCCOCC(CC)CCCC (stereo not shown) [Compound C]	–	–	–	109.4	104.6	significant improvements
